“Also recorded” adds a separate entry of the source.
Key:
TREX-BCBL cells = experiment: Autophagy and cell death in TREX-BCBL-vFLIP cells; details: for suppression of rapamycin-induced autophagy (and cell death) in TREX-BCBL cells: doxycycline-induced vFLIP, 2 μM rapamycin 12 hr
Procedure: Subsequently, autophagy was quantified as means (±SD) of the combined results from three independent experiments. 2 μM rapamycin treatment was included as a control. For panels B (right), TREX-BCBL-Vector and TREX-BCBL-vFLIP cells were treated with Doxycycline for 24 hr, followed by incubation with 0, 30, or 50 μM of TAT only, the K-α2, or the K-α4 peptide (top), or TAT only, the C-α2, or the C-α4 peptide (bottom) for an additional 12 hr and a BC Z2 CS analyzer used to determine cell death (as a percentage). […] For panel E, TREX-BCBL-Vector and TREX-BCBL-vFLIP cells were treated with the K-α and the K-α4 (30 μM each) peptide for 12 hr, followed by immunoblotting with αLC3 and αactin. […] For panel G, various human lymphoma cells were treated with 0, 30, or 50 μM of the K-α2 peptide (left) or the K-α4 peptide (right) for 12 hr and cell death (as a percentage) was determined using a BC Z2 CS Analyzer. For panel H, KSHV-infected BCBL1 cells were incubated with various combinations of rapamycin (25 nM), the K-α2 peptide (20 μM), and the K-α4 peptide (20 μM). A BC Z2 CS Analyzer was used to determine cell numbers (left) and cell death at 6 days (right).

BCBL1 cells = experiment: Protection of TREX-BCBL cells from rapamycin- or zVAD-induced growth suppression and autophagic death; type: cell-based, human; details: ectopic expression in BCBL1 cells; 50 nM rapamycin or 50 μM zVAD, 6 days
Procedure: The effect of vFLIP on autophagy was tested in a KSHV-infected BCBL1 cell line.

NIH3T3 cells [1] = experiment: GFP-LC3 autophagy assay in NIH3T3 cells expressing FLIP; type: cell-based, murine; details: ectopic expression in NIH3T3 cells, Hank's solution 4 hr or 2 μM rapamycin 3 hr
Atg3-LC3 interaction [2] = target: T1, Atg3-LC3 interaction (Homo sapiens, UniProt Q9NT62); experiment: Competition with LC3 for Atg3 binding; details: HEK293T cells, GST-Atg3 and GFP-LC3
T1 construct: expressed in transfected cells; host or cells: HEK293T
T1 sequence (Q9NT62 whole entry): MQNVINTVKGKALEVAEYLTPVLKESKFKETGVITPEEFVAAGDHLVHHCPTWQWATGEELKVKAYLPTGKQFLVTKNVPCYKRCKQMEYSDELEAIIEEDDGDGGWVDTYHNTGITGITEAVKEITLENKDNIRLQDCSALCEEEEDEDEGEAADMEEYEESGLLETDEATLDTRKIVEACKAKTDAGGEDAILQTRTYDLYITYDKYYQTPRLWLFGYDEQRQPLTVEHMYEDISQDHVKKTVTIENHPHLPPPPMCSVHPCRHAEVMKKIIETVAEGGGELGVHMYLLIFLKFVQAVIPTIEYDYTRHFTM
Excerpt: (§1) For panel A, at 48 hr post-transfection with Flag-vFLIP and/or GFP-Atg3 (left) or Flag-vFLIP and/or GST-Atg3 (middle), HEK293T cells were used for immunoprecipitation with αFlag, αGFP, or GST pulldown, followed by immunoblotting with the indicated antibodies. For panel A (right), HEK293T cells transfected with FIag-vFLIP were used for immunoprecipitation with mouse IgG or αFlag, followed by immunoblotting with αAtg3. Panel B (top) depicts a schematic diagram of human Atg3. N,N-terminus; FR, flexible region; C, C-terminus. […] Panel C (top) depicts a schematic diagram of KSHV vFLIP. […] For panel F, NIH3T3-Vector and NIH3T3-vFLIP cells were treated with 2 nM rapamycin for 12 hr and used for IP with αAtg3, followed by immunoblotting with αLC3. In panels A-F, whole cell lysates (WCLs) were used for immunoblotting with the indicated antibodies to show expression.
(§2) Due to identical Atg3 binding patterns seen in vFLIP and LC3, the ability of vFLIP to directly compete with LC3 for Atg3 binding was tested. HEK293T cells were transfected with GST-Atg3 and GFP-LC3 along with increasing amount of Flag-vFLIP. At 48 hr post-transfection, GST pulldown was performed as described above, followed by immunoblotting with αGFP or αFlag.

Atg3-LC3 interaction [3] = experiment: Competition with LC3 for Atg3 binding; details: NIH3T3 cells, normal conditions; weakly recovered with 2 nM rapamycin 12 hr
Excerpt: as §1, §2

NIH3T3 cells [4] = experiment: TNF-α/CHX-induced apoptosis, PI staining and flow cytometry; type: cell-based, murine; details: 12 hr
Procedure: (§3) In panel A, propidium iodide (PI) staining and flow cytometry analysis were performed to determine apoptosis levels. In panels B-C, NIH3T3 cells containing vector, KSHV vFLIP, or its mutants were transfected with an NF-κB luciferase reporter construct and a control renilla luciferase plasmid, pRL-SV40. At 48 hr post-transfection, luciferase activity was measured with a luminometer using a dual luciferase assay kit and normalized with renilla luciferase activity to determine transfection efficiency (B). […] At 48 hr post-transfection, luciferase activity was measured as described above (E).
(§4) Propidium iodide (PI) staining and flow cytometry analysis were performed to determine apoptosis levels (FIG. 3A). Alternatively, NIH3T3 cells containing vector, KSHV vFLIP, or its mutants were transfected with an NF-κB-luciferase reporter construct and a control renilla luciferase plasmid, pRL-SV40 (Promega). At 48 hr post-transfection, luciferase activity was measured with a luminometer using a dual luciferase assay kit (Promega) and normalized with renilla luciferase activity to determine transfection efficiency (FIG. 3B).

[5] = system: HCT116, HaCat, and MEF cells; experiment: GFP-LC3 autophagy assay in HCT116, HaCat and MEF cells; type: cell-based; details: 2 μM rapamycin 3 hr
Atg3 [6] = target: T2, Atg3 (Homo sapiens, UniProt Q9NT62); experiment: Co-immunoprecipitation and GST pulldown with Atg3 in HEK293T cells; type: binding; details: HEK293T cells, 48 hr post-transfection
T2 construct: expressed in transfected cells; host or cells: HEK293T
T2 sequence (Q9NT62 whole entry): as above
Excerpt: as §1
(§5) WCLs were used for immunoblotting with αFlag or αGST. […] WCLs were used for immunoblotting with αFlag or αGST.
(§6) The ability of FLIP to bind to Atg3 was evaluated by co-immunoprecipitation assay. HEK293T cells were transfected with Flag-vFLIP and/or GFP-Atg3 or Flag-vFLIP and/or GST-Atg3, and at 48 hr post-transfection, cells were harvested and lysed in an NP40 buffer supplemented with complete protease inhibitor cocktail (Roche). After pre-clearing with protein A/G agarose beads for 1 hr at 4° C., whole-cell lysates were used for immunoprecipitation with αFlag, αGFP, or GST. Generally, 1-4 μg of the antibody was added to 1 ml of the cell lysate and incubated at 4° C. for 8 to 12 hr. The immunoprecipitates were then washed extensively with a lysis buffer and eluted by boiling them with an SDS loading buffer for 5 min. Following immunoprecipitation, samples were treated to immunoblot using αAtg3 (1:500) (Novus).
(§7) The overall structure of yeast Atg3 has a unique hammer-like shape with the N-terminal and C-terminal regions discretely responsible for Atg7 and Atg8 (equivalent to mammalian LC3) binding, respectively. (Yamada et al. (2007) J. Biol. Chem. 282:8036-8043). Based on the structure of yeast Atg3, human Atg3 deletion mutants fused with a GST mammalian expression vector were constructed: GST-Atg31-93, GST-Atg3193-268, GST-Atg3268-315, and GST-Atg3193-315.

Atg3 [7] = experiment: as above; type: binding, human; details: GST-Atg3 deletion mutants, GST pulldown
Excerpt: as §1, §5, §6, §7

LC3-II = experiment: Anti-LC3 immunoblotting of starved NIH3T3 cells expressing FLIP; type: cell-based, murine; details: starvation, Hank's solution 4 hr
Procedure: The arrows indicate autophagosomes.
During autophagy, an LC3 precursor (LC3-I) undergoes cleavage and lipidation to yield its processed form (LC3-II) (Mizushima et al. (2008) Nature 451:1069-1075). Immunoblotting was performed with an antibody against LC3 to further measure autophagic activity. […] Polypeptides were resolved by SDS-polyacrylamide gel electrophoresis (PAGE) and transferred to a PVDF membrane (Bio-Rad). […] The proteins were visualized by a chemiluminescence reagent (Pierce) and detected by a Fuji Phosphor Imager. […] Finally, the ability of FLIP to block autophagy in multiple cell types was evaluated.

NF-κB = NF-κB luciferase reporter assay in NIH3T3 cells; type: cell-based, murine; details: 48 hr post-transfection
Procedure: as §3, §4

Substance: KSHV vFLIP: viral FLIP of Kaposi's sarcoma-associated herpes virus, full-length protein
- inhibition of peptide-induced autophagy and cell death (TREX-BCBL cells; TREX-BCBL-vFLIP cells treated with FLIP peptides): minimal
- suppression of rapamycin-induced autophagy (and cell death) in TREX-BCBL cells (TREX-BCBL cells): readily blocked rapamycin-induced autophagy and cell death
- suppression of rapamycin-induced autophagy (and cell death) in TREX-BCBL cells (TREX-BCBL cells; listed as vFLIP): extensively suppressed rapamycin-induced autophagy
- protection from rapamycin- or zVAD-induced growth suppression and autophagic death (BCBL1 cells): almost completely blocked rapamycin- or zVAD-induced growth suppression and autophagic death
- suppression of starvation- and rapamycin-induced autophagy (GFP-LC3 puncta) (NIH3T3 cells [1]): strongly suppressed starvation- and rapamycin-induced autophagy; also recorded: anti-autophagy
- suppression of starvation- and rapamycin-induced autophagy (GFP-LC3 puncta) (NIH3T3 cells [1]; listed as vFLIP): effectively suppressed starvation- and rapamycin-induced autophagy
- Atg3-LC3 interaction with increasing vFLIP expression (Atg3-LC3 interaction [2]): marked decrease of Atg3-LC3 interaction
- endogenous Atg3 and LC3 interaction (Atg3-LC3 interaction [3]): dramatic reduction of endogenous Atg3 and LC3 interaction
- blocking of TNFα-induced apoptosis (NIH3T3 cells [4]): anti-apoptosis
- blocking of autophagy in several cell types [5]: efficiently blocked autophagy in a number of cell types
- Atg3 binding (Atg3 [6]): strongly interacted with endogenously and exogenously expressed Atg3
- Atg3 regions bound (Atg3 deletion mutants) (Atg3 [7]): independently bound either the aa193-268 or aa268-315 region of the C-terminal of Atg3
- processed LC3-II (LC3-II): little or no processed LC3-II
- NF-κB activation (NF-κB): carried out NF-κB activation

— patent US20110224133A1 (University of Southern California, priority 2008, published 2011)
